Data taken from paper doi:10.1101/2025.11.12.687946v2 (biorxiv, 2025).

T1: PaSuhB (Pseudomonas aeruginosa, UniProt Q9HXI4)
T1 sequence (Q9HXI4 1-271): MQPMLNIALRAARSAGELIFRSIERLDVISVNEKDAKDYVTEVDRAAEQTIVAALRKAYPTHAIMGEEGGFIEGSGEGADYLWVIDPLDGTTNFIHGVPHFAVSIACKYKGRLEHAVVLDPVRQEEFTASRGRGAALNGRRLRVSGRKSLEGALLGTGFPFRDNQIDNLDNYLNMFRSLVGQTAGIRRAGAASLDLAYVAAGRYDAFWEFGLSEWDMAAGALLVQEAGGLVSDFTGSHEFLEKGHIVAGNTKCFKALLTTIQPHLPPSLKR


What was measured:
PaSuhB [1] = target: T1, PaSuhB; assay: biochemical
PaSuhB [2] = target: T1, PaSuhB; assay: biochemical; remark: listed apart in the source
purified protein = substrate: O=P(O)(O)O[C@@H]1[C@H](O)[C@H](O)[C@@H](O)[C@H](O)[C@H]1O; assay: purified protein; settings: Mg2+, pH 8.0, 37 °C, no inhibitor

Molecule	Kd (PaSuhB [1]) [µM]	IC50 (PaSuhB [2]) [µM]	Km (purified protein) [µM]
O=C(O)c1cc(O)c(O)c(O)c1 [GDE, 3,4,5-trihydroxybenzoic acid]	8.71	~1340	
PaSuhB (Pseudomonas aeruginosa PAO1) (protein) MQPMLNIALRAARSAGELIFRSIERLDVISVNEKDAKDYVTEVDRAAEQTIVAALRKAYPTHAIMGEEGGFIEGSGEGADYLWVIDPLDGTTNFIHGVPHFAVSIACKYKGRLEHAVVLDPVRQEEFTASRGRGAALNGRRLRVSGRKSLEGALLGTGFPFRDNQIDNLDNYLNMFRSLVGQTAGIRRAGAASLDLAYVAAGRYDAFWEFGLSEWDMAAGALLVQEAGGLVSDFTGSHEFLEKGHIVAGNTKCFKALLTTIQPHLPPSLKR			43.82
